Assay results: the NIST ThermoML archive (doi:10.1016/j.tca.2010.01.019)
± gives the expanded uncertainty stated by the source.

Details: Crystal, Calculated from knudsen effusion weight loss

CC(C)(C)c1ccc2c(c1)-c1nc-2nc2[n-]c(nc3nc(nc4[n-]c(n1)c1ccc(C(C)(C)C)cc41)-c1ccc(C(C)(C)C)cc1-3)c1ccc(C(C)(C)C)cc21.[Cu+2] [copper tetra-4-tert-butylphthalocyanine]
Details	vapor or sublimation pressure [kPa]
587 K	4.737e-06 ± 3.3e-06
604 K	1.852e-05 ± 6.8e-06
620 K	5.892e-05 ± 1.7e-05
640 K	0.0001549 ± 4.1e-05
656 K	0.0004 ± 8.6e-05
679 K	0.0008741 ± 0.00019
696 K	0.002084 ± 0.00039
